Assay results as given in patent publication US20240150338A1, “COMPOUNDS AND USE THEREOF FOR TREATMENT OF NEURODEGENERATIVE, DEGENERATIVE AND METABOLIC DISORDERS” (University of Florida Research Foundation, Incorporated, priority 2021, published 2024).

Key:
[1] = test system: PK1 neuroblastoma cells exposed to TPrP; assay: cells; assay type: cell-based; conditions: Neuroblastoma cell, 96 h, read-out: TPrP EC50
[2] = Microsomal stability assay; assay type: in vitro ADME; conditions: 1 mg/ml human hepatic microsomes, 37° C., half-life by LC-MS/MS; yes = stability ≥15 minutes
Protocol: The metabolic stability of some test compounds was determined in hepatic human and mouse microsomes. The compound was incubated with 1 mg/ml human or mouse hepatic microsomes at 37° C. with continuous shaking. Aliquots were removed at various time points between 5 minutes and 2 hours and acetonitrile was added to quench the reactions and precipitate the proteins. Samples were then centrifuged through 0.45 μm filter plates and half-lives were determined by LC-MS/MS.

Row | Compound | EC50 [1] [nM] | Stabilty in human microsomes ≥ 15 minutes [2]
1 | NS(=O)(=O)c1ccc(Nc2nc(-c3ccncc3)c(CO)s2)cc1 [SR-28550, 4-((5-(Hydroxymethyl)-4-(pyridin-4-yl)thiazol-2-yl)amino)benzenesulfonamide] | 70 | yes
2 | Cc1cc(-c2csc(Nc3ccc(S(N)(=O)=O)cc3)n2)ccn1 [SR-33124, 4-((4-(2-Methylpyridin-4-yl)thiazol-2-yl)amino)benzenesulfonamide] | 30 | yes
3 | NS(=O)(=O)c1ccc(Nc2nc(-c3ccnc(Cl)c3)cs2)cc1 [SR-33125, 4-((4-(2-Chloropyridin-4-yl)thiazol-2-yl)amino)benzenesulfonamide] | 35 | yes
4 | Cc1cc(-c2csc(Nc3ccc(S(=O)(=O)O)cc3)n2)ccn1 [SR-33126, 4-((4-(2-Methylpyridin-4-yl)thiazol-2-Yl)amino)benzenesulfonic acid] | 25 | yes
5 | Cc1cc(-c2csc(Nc3ccc(S(C)(=O)=O)c(Cl)c3)n2)ccn1 [SR-33127, N-(3-chloro-4-(methylsulfonyl)phenyl)-4-(2-methylpyridin-4-yl)thiazol-2-amine] | 25 | yes
6 | O=S(=O)(O)c1ccc(Nc2nc(-c3ccnc(Cl)c3)cs2)cc1 [SR-33128, 4-((4-(2-Chloropyridin-4-yl)thiazol-2-yl)amino)benzenesulfonic acid] | > 500 | yes
7 | CS(=O)(=O)c1ccc(Nc2nc(-c3ccnc(Cl)c3)cs2)cc1Cl [SR-33129, N-(3-chloro-4-(methylsulfonyl)phenyl)-4-(2-chloropyridin-4-yl)thiazol-2-amine] | 65 | yes
8 | Cc1cc(-c2nc(Nc3ccc(S(N)(=O)=O)cc3)sc2CO)ccn1 [SR-33524, 4-((5-(Hydroxmethyl)-4-(2-methylpyridin-4-yl)thiazol-2-yl)amino)benzenesulfonamide] | 60 | yes
9 | NS(=O)(=O)c1ccc(Nc2nc(-c3ccnc(Cl)c3)c(CO)s2)cc1 [SR-33525, 4-((4-(2-Chloropyridin-4-yl)-5-(hydroxymethyl)thiazol-2-yl)amino)benzenesulfonamide] | 65 | yes
10 | Cc1cc(-c2nc(Nc3ccc(S(=O)(=O)O)cc3)sc2CO)ccn1 [SR-33526, 4-((5-(Hydroxymethyl)-4-(2-methylpyridin-4-yl)thiazol-2-yl)amino)benzenesulfonic acid] | 150 | yes
11 | O=S(=O)(O)c1ccc(Nc2nc(-c3ccnc(Cl)c3)c(CO)s2)cc1 [SR-33527, 4-((4-(2-Chloropyridin-4-yl)-5-(hydroxymethyl)thiazol-2-yl)amino)benzenesulfonic acid] | 160 | yes
12 | COc1cc(-c2csc(Nc3ccc(S(C)(=O)=O)c(C(F)(F)F)c3)n2)cc(OC)n1 [SR-34986, 4-(2,6-Dimethoxypyridin-4-yl)-N-(4-(methylsulfonyl)-3-(trifluoromethyl)phenyl)thiazol-2-amine] | > 500 | 
13 | CS(=O)(=O)c1ccc(Nc2nc(-c3ccnc(Cl)c3)c(CO)s2)cc1C(F)(F)F [SR-34987, (4-(2-Chloropyridin-4-yl)-2-((4-(methylsulfonyl)-3-(trifluoromethyl)phenyl)amino)thiazol-5-yl)methanol] | 480 | 
14 | Cc1cc(-c2nc(Nc3ccc(S(C)(=O)=O)c(C(F)(F)F)c3)sc2CO)ccn1 [SR-34988, (4-(2-Methylpyridin-4-yl)-2-((4-(methylsulfonyl)-3-(trifluoromethyl)phenyl)amino)thiazol-5-yl)methanol] | 335 | 
15 | Cc1cc(-c2nc(Nc3ccc(S(C)(=O)=O)c(C(F)(F)F)c3)sc2CO)cc(C)n1 [SR-34989, (4-(2,6-Dimethylpyridin-4-yl)-2-((4-(methylsulfonyl)-3-(trifluoromethyl)phenyl)amino)thiazol-5-yl)methanol] | 325 | 
16 | COc1cc(-c2nc(Nc3ccc(S(C)(=O)=O)c(C(F)(F)F)c3)sc2CO)ccn1 [SR-34990, (4-(2-Methoxypyridin-4-yl)-2-((4-(methylsulfonyl)-3-(trifluoromethyl)phenyl)amino)thiazol-5-yl)methanol] | 480 | 
17 | COc1cc(-c2nc(Nc3ccc(S(C)(=O)=O)c(C(F)(F)F)c3)sc2CO)cc(OC)n1 [SR-34991, (4-(2,6-Dimethoxypyridin-4-yl)-2-((4-(methylsulfonyl)-3-(trifluoromethyl)phenyl)amino)thiazol-5-yl)methanol] | > 500 | 
18 | Cc1cc(-c2nc(Nc3ccc(S(C)(=O)=O)c(Cl)c3)sc2CO)cc(C)n1 [SR-34995, (2-((3-Chloro-4-(methylsulfonyl)phenyl)amino)-4-(2,6-dimethylpyridin-4-yl)thiazol-5-yl)methanol] | 115 | 
19 | COc1cc(-c2nc(Nc3ccc(S(C)(=O)=O)c(Cl)c3)sc2CO)ccn1 [SR-34996, (2-((3-Chloro-4-(methylsulfonyl)phenyl)amino)-4-(2-methoxypyridin-4-yl)thiazol-5-yl)methanol] | 170 | 
20 | COCc1sc(Nc2ccc(S(C)(=O)=O)cc2)nc1-c1ccnc(C)c1 [SR-35364, 5-(Methoxymethyl)-4-(2-methylpyridin-4-yl)-N-(4-(methylsulfonyl)phenyl)thiazol-2-amine] | 230 | 
21 | CCOCc1sc(Nc2ccc(S(C)(=O)=O)cc2)nc1-c1ccnc(C)c1 [SR-35365, 5-(Ethoxymethyl)-4-(2-methylpyridin-4-yl)-N-(4-(methylsulfonyl)phenyl)thiazol-2-amine] | 450 | 
22 | Cc1cc(-c2nc(Nc3ccc(S(C)(=O)=O)cc3)sc2C=O)ccn1 [SR-35367, 4-(2-Methylpyridin-4-yl)-2-((4-(methylsulfonyl)phenyl)amino)thiazole-5-carbaldehyde] | 230 | 
23 | CCN(c1ccc(S(C)(=O)=O)cc1)c1nc(-c2ccnc(C)c2)cs1 [SR-35368, N-ethyl-4-(2-methylpyridin-4-yl)-N-(4-(methylsulfonyl)phenyl)thiazol-2-amine] | 230 | 
24 | Cc1cc(-c2nc(Nc3ccc(S(C)(=O)=O)cc3)sc2COc2ccccc2)ccn1 [SR-35369, 4-(2-Methylpyridin-4-yl)-N-(4-(methylsulfonyl)phenyl)-5-(phenoxymethyl)thiazol-2-amine] | > 500 | 
25 | Cc1cc(-c2nc(Nc3ccc(S(C)(=O)=O)cc3)sc2COc2ccc(F)cc2)ccn1 [SR-35370, 5-((4-Fluorophenoxy)methyl)-4-(2-methylpyridin-4-yl)-N-(4-(methylsulfonyl)phenyl)thiazol-2-amine] | > 500 | 
26 | Cc1cc(-c2nc(Nc3ccc(S(C)(=O)=O)cc3)sc2CSc2ccccc2)ccn1 [SR-35371, 4-(2-Methylpyridin-4-yl)-N-(4-(methylsulfonyl)phenyl)-5-((phenylthio)methyl)thiazol-2-amine] | > 500 | 
27 | CNS(=O)(=O)c1ccc(-c2csc(Nc3ccc(S(C)(=O)=O)c(C(F)(F)F)c3)n2)cc1 [SR-35734, N-methyl-4-(2-((4-(methylsulfonyl)-3-(trifluoromethyl)phenyl)amino)thiazol-4-yl)benzenesulfonamide] | 3 | 
